Measured values taken from ChEMBL document CHEMBL1132366, “Conceptually new sulfone analogues of the hormone 1alpha, 25-dihydroxyvitamin D(3): synthesis and preliminary biological evaluation” (J Med Chem, 1999).

How the values were obtained:
[1] = target: T1, Vitamin D3 receptor (Rattus norvegicus) (UniProt P13053); experiment: Binding affinity for vitamin D3 receptor compared to 1,25D3 (100%)
T1 sequence (whole entry): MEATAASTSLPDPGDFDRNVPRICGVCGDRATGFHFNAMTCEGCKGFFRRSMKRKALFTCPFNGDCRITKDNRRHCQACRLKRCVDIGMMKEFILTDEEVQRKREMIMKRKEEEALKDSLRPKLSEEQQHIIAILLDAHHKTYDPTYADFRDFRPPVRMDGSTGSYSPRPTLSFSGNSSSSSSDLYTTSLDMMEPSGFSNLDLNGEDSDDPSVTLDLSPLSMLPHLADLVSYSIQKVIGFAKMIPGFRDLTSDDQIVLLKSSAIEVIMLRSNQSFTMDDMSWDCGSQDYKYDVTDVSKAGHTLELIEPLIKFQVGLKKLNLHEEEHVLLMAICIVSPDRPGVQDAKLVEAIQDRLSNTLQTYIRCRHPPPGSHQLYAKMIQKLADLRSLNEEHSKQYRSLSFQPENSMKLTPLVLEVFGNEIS

[2] = target: T1, Vitamin D3 receptor (Rattus norvegicus); experiment: Vitamin D3 receptor-mediated transcriptional potency in rat osteosarcoma ROS 17/2.8 cells

SMILES | Affinity [1] [%] | ED50 [2] [pM]
C=C1/C(=C/C=C2/CCC[C@]3(C)C([C@H](C)CCS(=O)(=O)C(C)(C)C)=CC[C@@H]23)C[C@@H](O)C[C@@H]1O | 21 | 800
C=C1C(=CC=C2CCC[C@]3(C)[C@@H]([C@H](C)CCCC(C)(C)O)CC[C@@H]23)C[C@@H](O)C[C@@H]1O | – | 350
C=C1/C(=C/C=C2/CCC[C@]3(C)C([C@H](C)C/C=C(/F)S(=O)(=O)C(C)(C)C)=CC[C@@H]23)CC(O)CC1O (some centres not stated) | 4 | 4000
C=C1/C(=C/C=C2/CCC[C@]3(C)C([C@H](C)CCC(F)(F)S(=O)(=O)C(C)(C)C)=CC[C@@H]23)C[C@@H](O)C[C@@H]1O | 7.9 | 650
